Test results reported in ChEMBL document CHEMBL4359862, “Cinnamamide: An insight into the pharmacological advances and structure-activity relationships” (Eur J Med Chem, 2019).
≈ marks a conversion by molar mass, not a printed value. One block for each compound: values may come before it.

Legend:
[1] = target: T1, Tyrosinase (Agaricus bisporus) (UniProt O42713); experiment: Inhibition of mushroom tyrosinase at 25 uM using L-tyrosine as substrate incubated for 30 mins relative to control
T1 sequence (whole entry): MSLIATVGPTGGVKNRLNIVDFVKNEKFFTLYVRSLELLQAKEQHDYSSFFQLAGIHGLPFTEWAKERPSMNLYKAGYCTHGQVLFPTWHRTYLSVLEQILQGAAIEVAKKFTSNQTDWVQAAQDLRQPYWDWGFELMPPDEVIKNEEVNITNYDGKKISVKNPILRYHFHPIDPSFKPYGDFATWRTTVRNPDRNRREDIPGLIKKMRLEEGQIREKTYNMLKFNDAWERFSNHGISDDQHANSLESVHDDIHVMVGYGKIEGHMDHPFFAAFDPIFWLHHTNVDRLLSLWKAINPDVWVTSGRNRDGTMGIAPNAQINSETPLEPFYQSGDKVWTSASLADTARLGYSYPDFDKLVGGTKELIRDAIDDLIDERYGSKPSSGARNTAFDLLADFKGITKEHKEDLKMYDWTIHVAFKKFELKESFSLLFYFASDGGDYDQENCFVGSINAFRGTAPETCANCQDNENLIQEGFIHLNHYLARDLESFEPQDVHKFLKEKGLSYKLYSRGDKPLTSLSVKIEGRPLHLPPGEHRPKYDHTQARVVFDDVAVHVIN

[2] = target: T2, P-selectin (Homo sapiens, UniProt P16109); experiment: Inhibition of P-selectin (unknown origin) incubated for 30 mins by ELISA
T2 sequence (P16109 whole entry): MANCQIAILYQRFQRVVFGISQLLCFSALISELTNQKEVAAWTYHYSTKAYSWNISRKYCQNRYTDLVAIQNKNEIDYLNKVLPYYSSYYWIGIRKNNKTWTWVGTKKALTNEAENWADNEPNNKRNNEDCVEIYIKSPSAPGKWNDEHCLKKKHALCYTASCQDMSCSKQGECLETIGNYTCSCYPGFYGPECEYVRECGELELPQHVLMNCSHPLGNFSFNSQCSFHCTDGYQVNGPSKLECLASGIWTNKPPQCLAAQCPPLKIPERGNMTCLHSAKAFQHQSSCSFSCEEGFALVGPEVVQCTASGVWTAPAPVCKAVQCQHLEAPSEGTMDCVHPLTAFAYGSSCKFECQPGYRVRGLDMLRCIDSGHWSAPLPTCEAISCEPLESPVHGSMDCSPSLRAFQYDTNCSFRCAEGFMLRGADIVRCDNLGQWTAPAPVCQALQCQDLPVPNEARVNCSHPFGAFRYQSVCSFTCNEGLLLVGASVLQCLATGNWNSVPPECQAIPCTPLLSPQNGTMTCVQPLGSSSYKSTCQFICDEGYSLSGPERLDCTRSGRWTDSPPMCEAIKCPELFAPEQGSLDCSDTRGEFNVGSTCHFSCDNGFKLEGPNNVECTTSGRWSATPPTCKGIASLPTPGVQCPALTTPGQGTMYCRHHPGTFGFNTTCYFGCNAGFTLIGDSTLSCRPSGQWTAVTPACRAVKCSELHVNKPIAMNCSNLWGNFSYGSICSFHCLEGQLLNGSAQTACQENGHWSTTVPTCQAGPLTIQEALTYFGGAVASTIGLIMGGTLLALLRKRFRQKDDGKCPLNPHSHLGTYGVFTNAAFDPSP

[3] = target: Beta-secretase 1 (Homo sapiens, UniProt P56817); experiment: Inhibition of recombinant human BACE 1 using Rh-EVNL-DAEFK-Quencher as substrate incubated for 60 mins by fluorescence based assay
[4] = system: HeLa S3; experiment: Antiproliferative activity against human HeLaS3 cells assessed as reduction in cell viability incubated for 72 hrs by cell counter method; format: functional, cell-based; details: HeLa S3, 72 h
[5] = Inhibition of recombinant LFA1/ICAM1 (unknown origin) interaction in JY-8 cells expressing LFA1 incubated for 45 mins by fluorescence based assay; format: cell-based, Homo sapiens
[6] = target: Telomerase reverse transcriptase (Homo sapiens, UniProt O14746); experiment: Inhibition of telomerase (unknown origin)
[7] = system: MGC-803; experiment: Antiproliferative activity against human MGC803 cells; format: functional, cell-based
[8] = target: Epidermal growth factor receptor (Homo sapiens, UniProt P00533); experiment: Inhibition of EGFR (unknown origin)
[9] = target: Vascular endothelial growth factor receptor 2 (Homo sapiens, UniProt P35968); experiment: Inhibition of VEGFR (unknown origin)
[10] = system: Escherichia coli; experiment: Antibacterial activity against Escherichia coli assessed as reduction in bacterial cell viability incubated for 24 hrs by serial dilution assay; format: functional
[11] = system: Candida albicans; experiment: Antifungal activity against Candida albicans assessed as reduction in fungal cell growth incubated for 48 hrs by serial dilution assay; format: functional
[12] = Antioxidant activity assessed as DPPH free radical scavenging activity by spectrophotometry; format: functional
[13] = system: HT-29; experiment: Antiproliferative activity against human HT-29 cells assessed as reduction in cell viability by MTT assay; format: functional, cell-based
[14] = system: P388; experiment: Antiproliferative activity against mouse P388 cells assessed as reduction in cell viability by MTT assay; format: functional, cell-based
[15] = Inhibition of recombinant LFA1/ICAM1 (unknown origin) interaction incubated for 1 hr by time resolved fluorimetry; set-up: species or system Homo sapiens
[16] = system: U-937; experiment: Cell cycle arrest in human U937 cells assessed as increase in accumulation in G2 phase incubated for 6 hrs by propidium iodide staining based flow cytometry; format: functional; details: U-937, 6 h
[17] = system: DU-145; experiment: Antiproliferative activity against human DU145 cells assessed as reduction in cell viability incubated for 48 hrs by MTT assay; format: functional, cell-based; details: DU-145, 48 h
[18] = system: DU-145; experiment: Antiproliferative activity against human DU145 cells; format: functional, cell-based
[19] = system: Escherichia coli; experiment: Antibacterial activity against Escherichia coli assessed as reduction in bacterial cell viability by well plate method; format: functional
[20] = system: Bacillus subtilis; experiment: Antibacterial activity against Bacillus subtilis assessed as reduction in bacterial cell viability by well plate method; format: functional

Chain of Epidermal growth factor receptor (P00533 whole entry): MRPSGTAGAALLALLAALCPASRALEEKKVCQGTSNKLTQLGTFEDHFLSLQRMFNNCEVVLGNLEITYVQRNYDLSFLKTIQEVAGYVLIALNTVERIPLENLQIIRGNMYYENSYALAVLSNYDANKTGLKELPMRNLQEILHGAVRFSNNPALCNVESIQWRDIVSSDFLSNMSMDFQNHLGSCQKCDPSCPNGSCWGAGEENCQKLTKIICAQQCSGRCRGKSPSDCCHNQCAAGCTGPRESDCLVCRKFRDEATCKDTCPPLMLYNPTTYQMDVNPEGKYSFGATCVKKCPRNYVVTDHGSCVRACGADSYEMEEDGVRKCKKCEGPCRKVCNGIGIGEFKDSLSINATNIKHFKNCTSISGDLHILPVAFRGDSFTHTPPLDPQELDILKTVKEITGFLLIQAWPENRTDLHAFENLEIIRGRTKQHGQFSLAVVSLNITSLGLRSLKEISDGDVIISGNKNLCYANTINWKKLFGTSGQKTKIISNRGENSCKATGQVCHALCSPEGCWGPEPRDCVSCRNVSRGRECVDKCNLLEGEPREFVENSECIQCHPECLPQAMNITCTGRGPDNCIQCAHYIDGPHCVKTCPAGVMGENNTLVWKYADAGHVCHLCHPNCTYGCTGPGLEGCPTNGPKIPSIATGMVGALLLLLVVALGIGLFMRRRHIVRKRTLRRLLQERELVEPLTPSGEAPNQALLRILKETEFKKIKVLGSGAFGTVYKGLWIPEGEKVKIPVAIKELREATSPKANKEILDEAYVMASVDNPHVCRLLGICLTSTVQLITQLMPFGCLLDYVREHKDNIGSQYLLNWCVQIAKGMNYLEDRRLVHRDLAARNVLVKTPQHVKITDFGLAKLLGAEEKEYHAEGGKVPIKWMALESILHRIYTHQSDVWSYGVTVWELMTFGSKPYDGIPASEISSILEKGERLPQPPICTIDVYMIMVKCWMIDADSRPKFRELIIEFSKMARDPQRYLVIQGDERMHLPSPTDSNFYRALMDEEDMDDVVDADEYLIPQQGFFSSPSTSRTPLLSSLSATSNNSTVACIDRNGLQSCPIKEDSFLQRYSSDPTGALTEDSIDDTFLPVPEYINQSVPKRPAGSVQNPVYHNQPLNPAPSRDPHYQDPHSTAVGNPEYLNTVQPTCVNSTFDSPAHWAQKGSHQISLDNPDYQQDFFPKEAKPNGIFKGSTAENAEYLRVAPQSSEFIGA
Chain of Telomerase reverse transcriptase (O14746 whole entry): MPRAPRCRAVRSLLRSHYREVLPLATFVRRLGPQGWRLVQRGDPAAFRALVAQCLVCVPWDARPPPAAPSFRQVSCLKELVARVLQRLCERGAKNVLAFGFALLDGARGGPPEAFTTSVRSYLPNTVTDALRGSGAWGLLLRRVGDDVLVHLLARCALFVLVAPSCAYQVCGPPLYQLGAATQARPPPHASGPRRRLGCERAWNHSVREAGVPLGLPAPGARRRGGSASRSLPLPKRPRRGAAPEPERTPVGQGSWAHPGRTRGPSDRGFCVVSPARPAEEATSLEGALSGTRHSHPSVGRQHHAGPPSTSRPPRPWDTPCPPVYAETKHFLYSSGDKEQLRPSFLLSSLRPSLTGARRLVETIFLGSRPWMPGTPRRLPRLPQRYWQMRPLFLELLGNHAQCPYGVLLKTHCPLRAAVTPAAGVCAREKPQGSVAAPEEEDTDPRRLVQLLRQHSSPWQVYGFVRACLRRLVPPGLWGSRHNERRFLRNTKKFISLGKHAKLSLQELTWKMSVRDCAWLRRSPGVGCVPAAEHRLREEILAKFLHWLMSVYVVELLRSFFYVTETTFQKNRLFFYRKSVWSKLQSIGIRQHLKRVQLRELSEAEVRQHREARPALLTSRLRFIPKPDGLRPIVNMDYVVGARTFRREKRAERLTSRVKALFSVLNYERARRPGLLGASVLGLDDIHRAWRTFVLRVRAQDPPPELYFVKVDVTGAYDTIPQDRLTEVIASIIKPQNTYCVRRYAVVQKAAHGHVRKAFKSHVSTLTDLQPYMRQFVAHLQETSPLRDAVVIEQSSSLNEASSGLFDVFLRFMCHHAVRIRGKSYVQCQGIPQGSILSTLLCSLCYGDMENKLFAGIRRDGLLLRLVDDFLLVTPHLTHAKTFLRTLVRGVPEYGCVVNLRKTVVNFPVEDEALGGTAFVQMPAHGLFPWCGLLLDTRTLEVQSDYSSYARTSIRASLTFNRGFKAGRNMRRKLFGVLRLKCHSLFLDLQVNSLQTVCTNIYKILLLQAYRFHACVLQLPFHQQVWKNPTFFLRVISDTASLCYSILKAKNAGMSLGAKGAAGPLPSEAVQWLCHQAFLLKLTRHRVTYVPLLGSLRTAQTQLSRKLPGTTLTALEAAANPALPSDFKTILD
Chain of Vascular endothelial growth factor receptor 2 (P35968 whole entry): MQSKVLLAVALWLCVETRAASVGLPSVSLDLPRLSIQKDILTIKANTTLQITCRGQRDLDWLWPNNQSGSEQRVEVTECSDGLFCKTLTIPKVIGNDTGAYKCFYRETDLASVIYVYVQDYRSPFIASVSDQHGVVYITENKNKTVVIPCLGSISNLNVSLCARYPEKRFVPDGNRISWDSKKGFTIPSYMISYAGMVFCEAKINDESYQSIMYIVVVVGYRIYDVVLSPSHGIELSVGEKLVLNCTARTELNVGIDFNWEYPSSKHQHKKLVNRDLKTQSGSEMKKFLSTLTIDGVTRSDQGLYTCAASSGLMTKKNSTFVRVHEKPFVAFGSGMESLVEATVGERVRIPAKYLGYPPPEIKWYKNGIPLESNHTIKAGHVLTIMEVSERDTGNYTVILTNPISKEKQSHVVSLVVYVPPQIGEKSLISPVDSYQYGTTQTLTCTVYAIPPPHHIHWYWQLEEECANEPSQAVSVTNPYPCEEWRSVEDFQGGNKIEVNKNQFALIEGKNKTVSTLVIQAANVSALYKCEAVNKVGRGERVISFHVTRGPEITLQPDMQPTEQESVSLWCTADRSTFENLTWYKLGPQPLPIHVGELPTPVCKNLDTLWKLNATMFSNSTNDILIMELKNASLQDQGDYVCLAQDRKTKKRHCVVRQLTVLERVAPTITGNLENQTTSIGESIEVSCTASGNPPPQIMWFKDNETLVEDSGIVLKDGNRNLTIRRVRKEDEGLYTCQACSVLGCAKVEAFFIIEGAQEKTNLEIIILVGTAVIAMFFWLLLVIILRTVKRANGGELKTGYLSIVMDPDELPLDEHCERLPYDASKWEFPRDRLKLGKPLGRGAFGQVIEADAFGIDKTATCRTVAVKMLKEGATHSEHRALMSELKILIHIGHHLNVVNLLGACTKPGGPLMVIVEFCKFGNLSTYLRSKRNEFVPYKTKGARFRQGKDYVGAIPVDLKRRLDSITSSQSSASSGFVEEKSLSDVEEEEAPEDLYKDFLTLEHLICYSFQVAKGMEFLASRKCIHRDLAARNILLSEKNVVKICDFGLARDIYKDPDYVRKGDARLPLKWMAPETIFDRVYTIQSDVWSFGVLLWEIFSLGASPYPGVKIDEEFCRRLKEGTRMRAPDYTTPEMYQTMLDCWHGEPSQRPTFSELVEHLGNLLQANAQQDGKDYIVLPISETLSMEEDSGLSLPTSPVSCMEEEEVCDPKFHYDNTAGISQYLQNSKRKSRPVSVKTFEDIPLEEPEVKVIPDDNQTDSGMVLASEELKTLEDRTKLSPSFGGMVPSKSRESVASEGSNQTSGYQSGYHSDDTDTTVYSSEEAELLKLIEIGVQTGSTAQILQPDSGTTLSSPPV
Chain of Beta-secretase 1 (P56817 whole entry): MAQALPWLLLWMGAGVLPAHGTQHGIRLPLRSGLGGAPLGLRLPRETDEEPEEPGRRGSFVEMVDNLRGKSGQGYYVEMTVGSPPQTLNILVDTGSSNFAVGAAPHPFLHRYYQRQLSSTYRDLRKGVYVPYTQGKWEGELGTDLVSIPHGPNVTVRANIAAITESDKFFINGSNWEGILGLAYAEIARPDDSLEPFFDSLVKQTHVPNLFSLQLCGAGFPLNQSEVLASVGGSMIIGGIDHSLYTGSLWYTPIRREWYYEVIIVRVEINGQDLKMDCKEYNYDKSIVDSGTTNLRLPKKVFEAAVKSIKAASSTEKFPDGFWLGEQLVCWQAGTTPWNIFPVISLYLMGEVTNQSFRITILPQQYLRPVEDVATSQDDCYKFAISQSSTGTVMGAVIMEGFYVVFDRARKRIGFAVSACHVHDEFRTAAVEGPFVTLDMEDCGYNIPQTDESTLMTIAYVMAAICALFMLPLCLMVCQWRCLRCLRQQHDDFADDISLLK

- IC50 [2]: 300 nM
SMILES: CCCCCCCCCCCCCCCCNC(=O)/C=C/c1ccc(-c2[nH]c(-c3ccc(C4=NOC(C(=O)O)C4)cc3)nc2-c2ccc(/C=C/C(=O)O)cc2)cc1 (stereo not given)

- IC50 [3]: 86700 nM
SMILES: O=C(/C=C/c1ccccc1)NCCc1cc2cc(O)ccc2[nH]1

- IC50 [5]: 0.1 nM
SMILES: COc1ccccc1Sc1ccc(/C=C/C(=O)N2CCC(C(=O)O)CC2)c(C(F)(F)F)c1C(F)(F)F

- log(1/MIC) [10]: 2.43
- log(1/MIC) [11]: 2.43
SMILES: O=C(/C=C/c1ccccc1)N1CCCCC1

- EC50 [12]: 8100 nM
SMILES: O=C(/C=C/c1ccc(O)c(O)c1)NCCc1c[nH]c2ccc(O)cc12 [N-CAFFEOYLSEROTONIN]

- IC50 [13]: 4000 nM
- IC50 [14]: 4000 nM
SMILES: COc1cc(/C=C/C(=O)NCCc2cc(OC)c(O)c(OC)c2)ccc1O

- IC50 [15]: 35 nM
SMILES: CC(=O)N1CCN(C(=O)/C=C/c2ccc(Sc3ccccc3C(C)C)c([N+](=O)[O-])c2)CC1 [A-286982]

- log(1/MIC) [10]: 2.43
- log(1/MIC) [11]: 2.43
SMILES: CN(C)C(=O)/C=C/c1ccccc1

- IC50 [18]: 2080 nM
SMILES: O=C(/C=C/c1ccc(O)cc1)N1Cc2ccccc2[C@@H](OCc2ccccc2)[C@@H]1CO

- inhibition [1]: 95.7%
SMILES: O=C(/C=C/c1ccc(O)cc1O)N1CCOCC1

The remaining lines, values behind:

SMILES: O=C(/C=C/c1ccc(O)cc1O)NC1CCCC1
- inhibition [1]: 94.1%

SMILES: COc1ccc(/C=C/C(=O)N2C[C@H]3C[C@@]34C2=CC(=O)c2[nH]c(C)c(Cl)c24)cc1
- IC50 [4]: 0.029 nM

SMILES: CCCc1n[nH]c(C(N)=O)c1NC(=O)/C=C/c1ccco1
- IC50 [6]: 1020 nM
- IC50 [7]: 3010 nM

SMILES: CCCc1n[nH]c(C(N)=O)c1NC(=O)/C=C/c1cc(OC)c(OC)c(OC)c1
- IC50 [7]: 4240 nM

SMILES: O=C(O)C1CCN(C(=O)/C=C/c2ccc(Sc3ccc4c(c3)OCCO4)c(C(F)(F)F)c2C(F)(F)F)CC1
- IC50 [5]: 0.5 nM

SMILES: COc1cc(/C=C/C(=O)Nc2cc3c(Nc4ccc(F)c(Cl)c4)ncnc3cc2O[C@@H]2CCOC2)cc(OC)c1OC
- IC50 [8]: 9 nM
- IC50 [9]: 3.6 nM

SMILES: COc1cccc(/C=C/C(=O)Nc2cc(OC)c(OC)c(OC)c2)c1
- IC50 [16]: 8000 nM

SMILES: C=CCOc1cc(/C=C/C(=O)Nc2cc(OC)c(OC)c(OC)c2)ccc1N/C=C\C(=O)c1ccc(OC)c([N+](=O)[O-])c1
- IC50 [17]: 8910 nM

SMILES: COc1ccc(/C=C/C(=O)N2CCOCC2)c(OC)c1OC
- MIC [19]: 6.12 µM (≈ 1.88 µg/mL)
- MIC [20]: 6.12 µM (≈ 1.88 µg/mL)
